Assay: solubility in water (statement in the background section)
Assay type: physicochemical
Settings: compound (I) or a salt thereof

O=c1ccc2ccc(OCCCCN3CCN(c4cccc5sccc45)CC3)cc2[nH]1 [compound (I), 7-[4-(4-benzo[b]thiophen-4-yl-piperazin-1-yl)butoxy]-1H-quinolin-2-one]
solubility in water: hardly soluble in water

Reference: patent US20180271858A1, “SOLUTION FOR ORAL ADMINISTRATION” (OTSUKA PHARMACEUTICAL CO., LTD., priority 2011, published 2018)
